How the values were obtained:
Assay in all cases: Cell viability assay (ATPlite)
Format in all cases: cell-based
NCI-H2228 = details: Homo sapiens; NCI-H2228 cell line, 72 hours incubation
Method: (§1) Intracellular ATP content was used as an indirect readout of cell number using the ATPlite 1Step bioluminescence assay (Revvity, Groningen, the Netherlands). Cells were seeded in 384-well plates at an optimized density to ensure unrestricted growth and maximal signal at the end of the experiment. After 24 hours of incubation, the starting cell number was determined by adding ATPlite to each well of a control plate and recording luminescence on an Envision multimode reader (Revvity, Waltham, MA, USA) ([4]). Compounds were diluted in DMSO in √10-fold steps from 10 mmol/L stocks to obtain 9-point dilution series. After further 31.6-fold dilution in 20 mmol/L HEPES (pH 7.4), the dilution series were added in duplicate to the cells in the 384-well plates to determine the effect of the compounds on cell viability. Vehicle-treated controls were included to determine maximal cell proliferation. The final DMSO concentration was 0.4% (v/v) in all wells. After incubation for an additional 72 hours, the ATP content was measured in each well using ATPlite. The luminescent signal in inhibitor-treated wells was normalized to vehicle-treated control wells to determine the percentage viability at each concentration. Cell doublings were determined by relating the cell number of vehicle-treated controls to the starting cell number for each cell line. The viability assay of a cell line was repeated when the cell doubling deviated > 2-fold from the historic doubling as determined by multiple independent experiments. The quality of the complete assay was determined by a parallel test with doxorubicin on two cell lines. IC50 values were calculated by fitting a four-parameter logistic model to the percentage viability values using IDBS XLfit5 (IDBS, Guildford, United Kingdom). All curves were visually inspected and submitted to an F-test as implemented in IDBS XLfit5. Curves with an F-value above 1.5 were invalidated and IC50 values were maximized at the highest concentration.

A-673 = details: Homo sapiens, A673; A-673 cell line, 72 hours incubation
Method: as §1

NCI-H2052 = details: Homo sapiens; NCI-H2052 cell line, 72 hours incubation
Method: as §1

RS4;11 = details: Homo sapiens; RS4;11 cell line, 72 hours incubation
Method: as §1

H9 = details: Homo sapiens; H9 cell line, 72 hours incubation
Method: as §1

SNU-16 = details: Homo sapiens; SNU-16 cell line, 72 hours incubation
Method: as §1

CCF-STTG1 = details: Homo sapiens; CCF-STTG1 cell line, 72 hours incubation
Method: as §1

NCI-H1650 = details: Homo sapiens; NCI-H1650 cell line, 72 hours incubation
Method: as §1

THP-1 = details: Homo sapiens; THP-1 cell line, 72 hours incubation
Method: as §1

EoL-1 = details: Homo sapiens, EOL1; EoL-1 cell line, 72 hours incubation
Method: as §1

DoHH2 = details: Homo sapiens, DOHH-2; DoHH2 cell line, 72 hours incubation
Method: as §1

HT = details: Homo sapiens; HT cell line, 72 hours incubation
Method: as §1

Ku812 = details: Homo sapiens; Ku812 cell line, 72 hours incubation
Method: as §1

NCI-H716 = details: Homo sapiens; NCI-H716 cell line, 72 hours incubation
Method: as §1

LoVo = details: Homo sapiens; LoVo cell line, 72 hours incubation
Method: as §1

A-172 = details: Homo sapiens; A-172 cell line, 72 hours incubation
Method: as §1

BT-549 = details: Homo sapiens; BT-549 cell line, 72 hours incubation
Method: as §1

VA-ES-BJ = details: Homo sapiens; VA-ES-BJ cell line, 72 hours incubation
Method: as §1

SW684 = details: Homo sapiens; SW684 cell line, 72 hours incubation
Method: as §1

UM-UC-3 = details: Homo sapiens, UMUC3; UM-UC-3 cell line, 72 hours incubation
Method: as §1

HuTu 80 = details: Homo sapiens, HuTu80; HuTu 80 cell line, 72 hours incubation
Method: as §1

SW948 = details: Homo sapiens; SW948 cell line, 72 hours incubation
Method: as §1

MKN45 = details: Homo sapiens, MKN-45; MKN45 cell line, 72 hours incubation
Method: as §1

Kasumi-1 = details: Homo sapiens; Kasumi-1 cell line, 72 hours incubation
Method: as §1

ACHN = details: Homo sapiens; ACHN cell line, 72 hours incubation
Method: as §1

SW48 = details: Homo sapiens; SW48 cell line, 72 hours incubation
Method: as §1

BT-20 = details: Homo sapiens; BT-20 cell line, 72 hours incubation
Method: as §1

T98G = details: Homo sapiens; T98G cell line, 72 hours incubation
Method: as §1

SW620 = details: Homo sapiens, SW-620; SW620 cell line, 72 hours incubation
Method: as §1

MIA PaCa-2 = details: Homo sapiens; MIA PaCa-2 cell line, 72 hours incubation
Method: as §1

NCI-H1975 = details: Homo sapiens; NCI-H1975 cell line, 72 hours incubation
Method: as §1

Structure (SMILES): O=C(c1ccc(Oc2ccccc2)cc1Cl)c1c[nH]c2ncnc(N[C@@H]3CC[C@@H](CO)OC3)c12 [nemtabrutinib]
- IC50 (NCI-H2228): 7.5 µM
- IC50 (A-673): 3.6 µM
- IC50 (NCI-H2052): 5.24 µM
- IC50 (RS4;11): 7.8 µM
- IC50 (H9): 1.32 µM
- IC50 (SNU-16): 1.81 µM
- IC50 (CCF-STTG1): 16.7 µM
- IC50 (NCI-H1650): 9.8 µM
- IC50 (THP-1): 1.55 µM
- IC50 (EoL-1): 0.059 µM
- IC50 (DoHH2): 0.486 µM
- IC50 (HT): > 31.6 µM
- IC50 (Ku812): 1.43 µM
- IC50 (NCI-H716): 1.46 µM
- IC50 (LoVo): 2.36 µM
- IC50 (A-172): 10.6 µM
- IC50 (BT-549): 8.07 µM
- IC50 (VA-ES-BJ): 7.98 µM
- IC50 (SW684): 11.9 µM
- IC50 (UM-UC-3): 5.35 µM
- IC50 (HuTu 80): 1.68 µM
- IC50 (SW948): 3.57 µM
- IC50 (MKN45): 5.26 µM
- IC50 (Kasumi-1): 1.41 µM
- IC50 (ACHN): 2.29 µM
- IC50 (SW48): 0.445 µM
- IC50 (BT-20): 14.5 µM
- IC50 (T98G): 4.52 µM
- IC50 (SW620): 2.45 µM
- IC50 (MIA PaCa-2): 2.77 µM
- IC50 (NCI-H1975): 2.31 µM

Reference: article PMC12586182 (Frontiers in Oncology, 2025)
